Blank lines part the entries; values can stand above or below the compound they belong to.
Columns and labels:
SkBr3 cells = assay: Inhibition of breast cancer cell growth, DAPI nuclei count; format: cell-based; conditions: for inhibition at 1 µM: Homo sapiens; for inhibition at 1 µM / DAPI Nuclei Count: SkBr3 cells, IRX4204 1000 nM
Description: MCF7 is an ER^+ PR^+ Her2^− cell line. SkBr3 is an ER^− PR^− Her2^+ cell line. […] After a further 6 days, the cells were fixed with 4% paraformaldehyde in phosphate buffered saline (PBS). Nuclei were then stained with DAPI and imaged with the MetaXpress® microscope (Molecular Devices, San Jose, CA). Cell nuclei were segmented and then counted by defining pixel intensity over background and object size, using the algorithm of the MetaXpress® image analysis software. […]

BT474 cells = assay: as above; format: cell-based; conditions: IRX4204 1000 nM; for inhibition at 1 µM: Homo sapiens
Description: (§1) MCF7 is an ER^+ PR^+ Her2^− cell line. SkBr3 is an ER^− PR^− Her2^+ cell line. […] After a further 6 days, the cells were fixed with 4% paraformaldehyde in phosphate buffered saline (PBS). Nuclei were then stained with DAPI and imaged with the MetaXpress® microscope (Molecular Devices, San Jose, CA). Cell nuclei were segmented and then counted by defining pixel intensity over background and object size, using the algorithm of the MetaXpress® image analysis software. Experimental data points were performed at a minimum of quadruplicate, and results were reported as average cell count ±standard deviation (SD).
(§2) To assess if this improved growth inhibition effect was synergistic, the percent inhibition observed for the highest concentrations of the combined therapeutic agents was compared to the percent inhibition that would be expected for the combination based on the observed inhibition of the therapeutic agents used alone, if the agents acting independently, that is, without interaction (see Table 1). That is, PAE=(FE1+((1−FE1)×FE2))×100, where PAE is the predicted additive effect, FE1 is the observed fractional effect of a 1st treatment, and FE2 is the observed fractional effect of a 2nd treatment.
(§3) Additionally the panel of breast cancer cell lines was expanded to also include the ER^+ PR^+ Her2^+ cell line BT474 and the ER^+ PR^− Her2^+ cell line MDA-MB-361.
(§4) To assess if this improved growth inhibition effect was synergistic, the percent inhibition observed for the highest concentrations of the combined therapeutic agents was compared to the percent inhibition that would be expected for the combination based on the observed inhibition of the therapeutic agents used alone, if the agents acting independently, that is, without interaction (see Tables 2-4).

MDA-MB-361 cells = assay: as above; format: cell-based; conditions: IRX4204 1000 nM; for inhibition at 1 µM: Homo sapiens
Description: as §1, §2, §3, §4

[1] = tested on: HCC1954 human breast cancer cells; assay: Inhibition of growth of a Her2-targeted agent resistant Her2+ cell line, DAPI nuclei count; format: cell-based; conditions: for resistance of the cell line to the agent used individually: HCC1954, as compared to SkBr3; for growth inhibitory effect (FIGS. 4A-B, 5A-B), in words: HCC1954, 6 days, IRX4204 10, 100 or 1000 nM
Description: HCC1954 is Her2^+ cancer cell line derived from a ductal carcinoma of the breast.
HCC1954 human breast cancer cells were seeded at 3000 cells per well in 96-well plates and treated with neratinib [1 or 10 nM] or DMSO (0.1%) in combination with IRX4204 [10, 100, or 1000 nM]. After 6 days of treatment, cells were fixed with 4% paraformaldehyde. Nuclei were stained with DAPI, imaged using ImageXpress® Pico (Molecular Devices) and counted using CellReporterXpress® Analysis Software (FIGS. 4A-B) Each data point represents six replicates. Statistical significance was determined using the Bonferroni-Dunn method of multiple t-tests. Each day was analyzed individually, without assuming a consistent SD (*p<0.01).
The experiment was also conducted using tucatinib or lapatinib in place of neratinib.

HCC1954 = assay: IC50 of Her2 kinase inhibitors on Her2-amplified cell lines; format: cell-based; conditions: Homo sapiens
SkBr3 = assay: as above; format: cell-based; conditions: Homo sapiens, SK-BR-3
AU565 = assay: as above; format: cell-based; conditions: Homo sapiens
[2] = tested on: PPAR/RXR, FXR/RXR, or LXR/RXR; conditions: cited from earlier work
MCF7 cells = assay: Inhibition of breast cancer cell growth, DAPI nuclei count; format: cell-based; conditions: Her2− MCF7 cells; IRX4204 0-1000 nM, trastuzumab 0-10 μg/ml; 6 days
Description: MCF7 is an ER^+ PR^+ Her2^− cell line. SkBr3 is an ER^− PR^− Her2^+ cell line. […] After a further 6 days, the cells were fixed with 4% paraformaldehyde in phosphate buffered saline (PBS). Nuclei were then stained with DAPI and imaged with the MetaXpress® microscope (Molecular Devices, San Jose, CA). Cell nuclei were segmented and then counted by defining pixel intensity over background and object size, using the algorithm of the MetaXpress® image analysis software.
as §3

RAR/RXR = assay: Activation of non-permissive RXR heterodimers
Nurr1/RXR heterodimer = assay: Activation of permissive RXR heterodimers
PPAR/RXR = assay: Activation of permissive RXR heterodimers
FXR/RXR = assay: Activation of permissive RXR heterodimers
LXR/RXR = assay: Activation of permissive RXR heterodimers
RXR homodimers = assay: Activation of RXR homodimers
[3] = SK-BR-3, lapatinib experiment, Lapatinib 1000 nM
[4] = lapatinib experiment, Lapatinib 1000 nM, control 19855
[5] = BT-474, lapatinib experiment, Lapatinib 1000 nM
[6] = lapatinib experiment, Lapatinib 1000 nM, control 2937
[7] = MDA-MB-361 cells, lapatinib experiment, Lapatinib 1000 nM, control 6696
[8] = SK-BR-3, neratinib experiment, Neratinib 1000 nM
[9] = neratinib experiment, Neratinib 1000 nM, control 6696
[10] = BT-474, neratinib experiment, Neratinib 1000 nM
[11] = neratinib experiment, Neratinib 1000 nM, control 2192
[12] = MDA-MB-361 cells, neratinib experiment, Neratinib 1000 nM, control 5297

- IC50 (HCC1954): > 1400 nM
- IC50 (SkBr3): 152 nM
- IC50 (AU565): 294 nM
Compound: CS(=O)(=O)CCNCc1ccc(-c2ccc3ncnc(Nc4ccc(OCc5cccc(F)c5)c(Cl)c4)c3c2)o1 [Lapatinib, reference compound]
- inhibition at 1 µM (SkBr3 cells; [3]): 88.9%
- DAPI Nuclei Count (SkBr3 cells; [4]): 2211
- inhibition at 1 µM (BT474 cells; [5]): 58.8%
- DAPI Nuclei Count (BT474 cells; [6]): 1211
- inhibition at 1 µM (MDA-MB-361 cells; MDA-MB-361 cells, lapatinib experiment, Lapatinib 1000 nM): 86.5%
- DAPI Nuclei Count (MDA-MB-361 cells; [7]): 903
- resistance of the cell line to the agent used individually [1]: resistant
- growth inhibitory effect (FIGS. 4A-B, 5A-B), in words [1]: some small effect

- IC50 (HCC1954): > 2000 nM
- IC50 (SkBr3): 22 nM
Compound: Cc1cc(Nc2ncnc3ccc(NC4=NC(C)(C)CO4)cc23)ccc1Oc1ccn2ncnc2c1 [Tucatinib]
- resistance of the cell line to the agent used individually [1]: resistant
- growth inhibitory effect (FIGS. 4A-B, 5A-B), in words [1]: some small effect

Compound: Cc1cc2c(cc1C1(c3ccc(C(=O)O)cn3)CC1)C(C)(C)CCC2(C)C [LGD268]
- activation of one or more of PPAR/RXR, FXR/RXR, or LXR/RXR, in words [2]: activates

Compound: CCOc1cc2ncc(C#N)c(Nc3ccc(OCc4ccccn4)c(Cl)c3)c2cc1NC(=O)/C=C/CN(C)C [Neratinib, reference compound]
- inhibition at 1 µM (SkBr3 cells; [8]): 86.5%
- DAPI Nuclei Count (SkBr3 cells; [9]): 903
- inhibition at 1 µM (BT474 cells; [10]): 91.8%
- DAPI Nuclei Count (BT474 cells; [11]): 180
- inhibition at 1 µM (MDA-MB-361 cells; MDA-MB-361 cells, neratinib experiment, Neratinib 1000 nM): 95.3%
- DAPI Nuclei Count (MDA-MB-361 cells; [12]): 249
- resistance of the cell line to the agent used individually [1]: resistant
- IC50 (HCC1954): > 100 nM
- IC50 (SkBr3): 7 nM
- IC50 (AU565): 20 nM

Compound: CC(/C=C/[C@@H]1C[C@]1(C)c1ccc2c(c1)C(C)(C)CCC2(C)C)=C\C(=O)O [IRX4204, 3,7-dimethyl-6(S),7(S)-methano,7-[1,1,4,4-tetramethyl-1,2,3,4-tetrahydron-aphth-7-yl]2(E), 4(E) heptadienoic acid]
- growth inhibitory effect (FIG. 1B), in words (SkBr3 cells; Her2+ SkBr3 cells, IRX4204 0-1000 nM, trastuzumab 0-10 μg/ml, 6 days): moderate growth inhibitory effect
- inhibition at 1 µM (SkBr3 cells; SK-BR-3, 144 h, 6 days, Herceptin 1000 ng, alone or combined): 29.4%
- inhibition at 1 µM (SkBr3 cells; [3]): 4.8%
- inhibition at 1 µM (SkBr3 cells; [8]): 22.1%
- DAPI Nuclei Count (SkBr3 cells; 6 days, Herceptin 1000 ng, alone or combined, control 25958): 18274
- DAPI Nuclei Count (SkBr3 cells; [4]): 18906
- DAPI Nuclei Count (SkBr3 cells; [9]): 5218
- growth inhibitory effect (FIG. 1A), in words (MCF7 cells): neither agent had more than marginal effect
- inhibition at 1 µM (BT474 cells; [5]): -15.7%
- inhibition at 1 µM (BT474 cells; [10]): 6.8%
- DAPI Nuclei Count (BT474 cells; [6]): 3399
- DAPI Nuclei Count (BT474 cells; [11]): 2043
- inhibition at 1 µM (MDA-MB-361 cells; MDA-MB-361, MDA-MB-361 cells, lapatinib experiment, Lapatinib 1000 nM): 22.1%
- inhibition at 1 µM (MDA-MB-361 cells; MDA-MB-361, MDA-MB-361 cells, neratinib experiment, Neratinib 1000 nM): 43.6%
- DAPI Nuclei Count (MDA-MB-361 cells; [7]): 5218
- DAPI Nuclei Count (MDA-MB-361 cells; [12]): 2459
- resistance of the cell line to the agent used individually [1]: highly resistant
- growth inhibitory effect (FIGS. 4A-B, 5A-B), in words [1]: no growth inhibitory effect
- activation of heterodimer, in words (RAR/RXR): does not activate
- activation of heterodimer, in words (Nurr1/RXR heterodimer): specifically activates
- activation of heterodimer, in words (PPAR/RXR): does not activate
- activation of heterodimer, in words (FXR/RXR): does not activate
- activation of heterodimer, in words (LXR/RXR): does not activate
- activation of RXR homodimers, in words (RXR homodimers): specifically activate
